Experimental data reported in patent publication US11572590B2, “Methods for evaluating tumor cell spheroids using 3D microfluidic cell culture device” (Dana-Farber Cancer Institute, Inc., priority 2017, dated 2023).
Read-outs that look alike come from different tables or passages of the source.

Experiments:
Test in all cases: SelectScreen Kinase Profiling, single point inhibition and IC50 for off-target kinases
Type in all cases: biochemical
off-target kinases [1] = target: off-target kinases (Homo sapiens, UniProt P43405); conditions: SYK, 1000 μM, ATP Km app, ZLYTE
off-target kinases [2] = target: off-target kinases (Homo sapiens, UniProt Q13882)
off-target kinases [3] = target: T1, off-target kinases (Homo sapiens, UniProt Q9H2K8); conditions: TAOK3 (JIK), LanthaScreen Binding
T1 sequence (Q9H2K8 1-898): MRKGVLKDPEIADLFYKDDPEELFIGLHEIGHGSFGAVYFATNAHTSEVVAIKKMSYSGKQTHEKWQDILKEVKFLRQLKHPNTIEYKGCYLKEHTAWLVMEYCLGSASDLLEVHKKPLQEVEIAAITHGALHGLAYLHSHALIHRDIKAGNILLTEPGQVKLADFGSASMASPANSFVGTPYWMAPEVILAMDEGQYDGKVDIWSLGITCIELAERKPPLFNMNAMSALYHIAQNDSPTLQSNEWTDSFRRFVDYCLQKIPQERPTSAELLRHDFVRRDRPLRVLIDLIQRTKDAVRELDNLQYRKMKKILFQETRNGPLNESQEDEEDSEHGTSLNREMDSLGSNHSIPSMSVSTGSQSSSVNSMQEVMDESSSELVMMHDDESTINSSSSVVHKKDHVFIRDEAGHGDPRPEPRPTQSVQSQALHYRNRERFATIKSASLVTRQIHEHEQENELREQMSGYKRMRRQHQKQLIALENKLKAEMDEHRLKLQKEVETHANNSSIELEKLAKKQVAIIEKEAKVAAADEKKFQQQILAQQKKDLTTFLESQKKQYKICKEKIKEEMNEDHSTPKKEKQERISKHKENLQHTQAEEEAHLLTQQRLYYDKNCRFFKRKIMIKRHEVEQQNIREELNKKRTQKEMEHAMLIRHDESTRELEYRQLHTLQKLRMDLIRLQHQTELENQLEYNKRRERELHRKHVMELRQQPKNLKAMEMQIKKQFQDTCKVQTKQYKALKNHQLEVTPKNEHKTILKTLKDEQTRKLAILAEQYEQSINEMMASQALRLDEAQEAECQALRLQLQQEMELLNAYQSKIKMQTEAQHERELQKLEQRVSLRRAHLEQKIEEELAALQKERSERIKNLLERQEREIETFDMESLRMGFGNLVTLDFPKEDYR

off-target kinases [4] = target: off-target kinases (Homo sapiens, UniProt Q9HBH9); conditions: MKNK2 (MNK2), LanthaScreen Binding
off-target kinases [5] = target: off-target kinases (Homo sapiens, UniProt Q9HCP0); conditions: CSNK1G1 (CK1 gamma 1); Cmpd1 1000 μM; ATP Km app; ZLYTE
Sequence of off-target kinases (Homo sapiens, UniProt Q9HCP0) (Q9HCP0 whole entry): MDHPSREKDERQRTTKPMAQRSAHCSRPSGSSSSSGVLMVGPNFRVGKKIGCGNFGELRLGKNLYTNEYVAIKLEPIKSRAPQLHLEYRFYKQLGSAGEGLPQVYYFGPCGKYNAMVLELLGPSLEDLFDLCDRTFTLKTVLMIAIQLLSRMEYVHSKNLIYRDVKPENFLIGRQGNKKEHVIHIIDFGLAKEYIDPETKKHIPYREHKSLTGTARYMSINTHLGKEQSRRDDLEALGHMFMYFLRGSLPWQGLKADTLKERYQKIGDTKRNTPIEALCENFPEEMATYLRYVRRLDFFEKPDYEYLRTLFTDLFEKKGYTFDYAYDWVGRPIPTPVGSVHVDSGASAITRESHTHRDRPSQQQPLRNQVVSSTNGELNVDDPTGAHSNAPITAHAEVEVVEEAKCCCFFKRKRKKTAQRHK

Sequence of off-target kinases (Homo sapiens, UniProt Q9HBH9) (Q9HBH9 whole entry): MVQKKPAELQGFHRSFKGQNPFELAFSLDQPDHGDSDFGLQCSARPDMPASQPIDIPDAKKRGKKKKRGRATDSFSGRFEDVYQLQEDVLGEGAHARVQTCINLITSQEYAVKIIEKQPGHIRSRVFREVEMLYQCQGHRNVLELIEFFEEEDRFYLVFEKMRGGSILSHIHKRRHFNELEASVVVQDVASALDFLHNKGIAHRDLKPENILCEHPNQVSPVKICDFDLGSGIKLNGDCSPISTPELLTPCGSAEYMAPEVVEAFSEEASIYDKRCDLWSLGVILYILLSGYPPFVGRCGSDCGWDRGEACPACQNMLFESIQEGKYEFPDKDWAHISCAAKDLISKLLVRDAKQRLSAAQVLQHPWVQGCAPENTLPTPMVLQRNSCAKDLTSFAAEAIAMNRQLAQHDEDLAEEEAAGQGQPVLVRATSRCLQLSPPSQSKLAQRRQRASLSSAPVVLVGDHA
Sequence of off-target kinases (Homo sapiens, UniProt Q13882) (Q13882 whole entry): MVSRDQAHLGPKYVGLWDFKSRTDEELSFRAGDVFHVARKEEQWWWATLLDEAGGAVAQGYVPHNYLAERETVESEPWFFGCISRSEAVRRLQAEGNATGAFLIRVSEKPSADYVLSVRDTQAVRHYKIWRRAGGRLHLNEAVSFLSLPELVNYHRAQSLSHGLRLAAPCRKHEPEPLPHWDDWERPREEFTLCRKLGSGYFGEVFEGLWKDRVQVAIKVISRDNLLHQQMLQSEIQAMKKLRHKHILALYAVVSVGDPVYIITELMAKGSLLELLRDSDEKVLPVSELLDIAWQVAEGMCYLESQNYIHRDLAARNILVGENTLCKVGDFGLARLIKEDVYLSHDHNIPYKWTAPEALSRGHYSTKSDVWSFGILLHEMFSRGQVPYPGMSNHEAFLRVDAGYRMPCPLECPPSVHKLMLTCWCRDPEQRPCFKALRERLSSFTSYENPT

N#Cc1cc(-c2ncnc(Nc3ccc(N4CCN(C5COC5)CC4)cc3)n2)ccc1OC1CCOCC1 [Compound 1, 5-(4-((4-(4-(oxetan-3-yl)piperazin-1-yl)phenyl)amino)-1,3,5-triazin-2-yl)-2-((tetrahydro-2H-pyran-4-yl)oxy)benzonitrile]
inhibition at 1000 µM (off-target kinases [1]; read-out: % Inhibition 1): 44% | inhibition at 1000 µM (off-target kinases [1]; read-out: % Inhibition 2): 49% | inhibition at 1000 µM (off-target kinases [1]; read-out: % Inhibition Avg): 46% | inhibition (off-target kinases [2]; PTK6 (Brk), ZLYTE, ATP Km app, read-out: % Inhibition 2): -1% | inhibition (off-target kinases [2]; read-out: % Inhibition 1): -1% | inhibition (off-target kinases [2]; read-out: % Inhibition Avg): -1% | inhibition (off-target kinases [3]; read-out: % Inhibition 1): 3% | inhibition (off-target kinases [3]; read-out: % Inhibition 2): 1% | inhibition (off-target kinases [3]; read-out: % Inhibition Avg): 2% | inhibition (off-target kinases [4]; read-out: % Inhibition 1): 86% | inhibition (off-target kinases [4]; read-out: % Inhibition 2): 88% | inhibition (off-target kinases [4]; read-out: % Inhibition Avg): 87% | % Inhibition 1 (off-target kinases [5]): −14% | % Inhibition 2 (off-target kinases [5]): 2% | % Inhibition Avg (off-target kinases [5]): −6%
